Laboratory results taken from patent US9446011B2, “Anticonvulsant combination therapy” (UCB Pharma GmbH, priority 2006, dated 2016).
“Also recorded” adds a separate entry of the source.

Key:
6 Hz-induced seizures = assay: 6 Hz seizure test in mice with isobolographic analysis; settings: for doses for antiseizure effect compared with those needed in the MES test: MES data obtained in other studies; for anticonvulsant effects against 6 Hz seizure: drug administered alone, i.p., mice
[1] = tested on: cobalt-homocysteine-induced status epilepticus; settings: in vivo; cited from earlier work
[2] = tested on: 6 Hz refractory seizure model; settings: in vivo; cited from earlier work
[3] = Clinical population pharmacokinetic analysis
[4] = tested on: refractory self-sustaining status epilepticus; settings: in vivo; cited from earlier work
[5] = tested on: voltage gated sodium channels; assay: Voltage gated sodium channels in cell/tissue culture; assay type: cell-based; settings: recent data
glutamate transmission = settings: mouse cortical neurons; cited from earlier work
[6] = tested on: lithium-pilocarpine-induced status epilepticus; settings: in vivo; cited from earlier work
NMDA-evoked currents = settings: cell/tissue culture; cited from earlier work
[7] = tested on: neurotransmitter receptors or ion channels; settings: more than 100 different sites; cited from earlier work
motor coordination = assay: Rotarod test; assay type: in vivo, mice; settings: drug alone at pharmacological doses
Protocol: The impaired motor function was quantified by the rotarod test in mice according to Dunham and Miya (1957). The rotarod test was undertaken by use of a rod of 3 cm diameter, rotating at constant speed of 6 rpm. In this test, an acute neurological deficit (adverse effects produced by AEDs) was indicated by the inability of the animals to maintain their equilibrium for at least 120 s on the rotating rod. The dose ratio assessed in this model was always 1:1. For comparison, each AED was tested alone at its ED50 and 50% of its ED50 in the 6 Hz model.

[8] = tested on: pattern of neuronal activation; settings: 2-deoxy glucose technique; cited from earlier work
GABA currents = settings: mouse cortical neurons; cited from earlier work
[9] = molecular target: collapsing response mediator protein CRMP-2 (Homo sapiens, UniProt Q16555); assay: Modulation of CRMP-2; settings: recent data
[10] = tested on: voltage gated sodium channels; settings: cell/tissue culture; cited from earlier work
sound-induced seizure = settings: mouse, in vivo; cited from earlier work
[11] = tested on: maximal electroshock seizure [MES]; settings: in vivo; cited from earlier work
epileptic seizures = assay: ED50 values in various models of the rat and the mouse; assay type: in vivo; settings: i.p.
Protocol: The skilled person may determine the ED50 values by methods known in the art. It is preferred that the ED50 values are determined by preclinical or/and clinical trials. Published ED50 values may also be used. […] FIGS. 12 and 13 disclose specific ED50 values obtained in various models of the rat and the mouse. A person skilled in the art knows that in a particular model, among different species, ED50 values show a variation by a factor of up to 5 or even larger.

## NC(=O)N1c2ccccc2C=Cc2ccccc21 [CBZ, carbamazepine]
6 Hz-induced seizures
  doses for antiseizure effect compared with those needed in the MES test: significantly higher doses
  anticonvulsant effects against 6 Hz seizure: dose-dependent anticonvulsant effects

## NCC1(CC(=O)O)CCCCC1 [GBP, gabapentin]
6 Hz-induced seizures
  doses for antiseizure effect compared with those needed in the MES test: significantly higher doses
  anticonvulsant effects against 6 Hz seizure: dose-dependent anticonvulsant effects

## COC[C@@H](NC(C)=O)C(=O)NCc1ccccc1 [LCM, R-2-acetamido-N-benzyl-3-methoxypropionamide]
[1]
  activity against status epilepticus: effective
[2]
  anticonvulsant activity: anticonvulsant activity has been shown
[3]
  effect on plasma levels of AEDs or vice versa: no evidence for any effect
[4]
  activity against status epilepticus: active
[5]
  slow inactivation of voltage-gated sodium channels: enhances slow inactivation
Glutamate transmission
  effect on glutamate transmission: inhibited glutamate transmission indirectly
[6]
  activity against status epilepticus: effective
NMDA-evoked currents
  effects on NMDA-evoked currents: no effects
[7]
  binding: neither LCM nor its metabolites bind
Motor coordination
  rotarod performance: did not impair rotarod performance
6 Hz-induced seizures; 6 Hz model, drugs alone
  potency compared to the other tested AEDs: highest potency
6 Hz-induced seizures
  anticonvulsant effects against 6 Hz seizure: dose-dependent anticonvulsant effects; also recorded: fully protected
[8]
  effect on basal patterns: no effect
  effect on the pattern of neuronal activation by 6 Hz induced seizures: attenuated
GABA currents
  effect on GABA currents: increased GABA currents
[9]
  effect on CRMP-2: modulates
[10]
  effects at voltage gated sodium channels: no effects
sound-induced seizure
  anticonvulsant activity: anticonvulsant activity has been shown
[11]
  anticonvulsant activity: anticonvulsant activity has been shown

## CC[C@@H](C(N)=O)N1CCCC1=O [LEV, levetiracetam]
[2]
  protection in the 6 Hz model: complete protection
Epileptic seizures
  ED50: about 20 mg/kg body weight
6 Hz-induced seizures
  anticonvulsant effects against 6 Hz seizure: dose-dependent anticonvulsant effects

## Nc1nnc(-c2cccc(Cl)c2Cl)c(N)n1 [LTG, lamotrigine]
Epileptic seizures
  ED50: about 85 mg/kg body weight
6 Hz-induced seizures
  doses for antiseizure effect compared with those needed in the MES test: significantly higher doses
  anticonvulsant effects against 6 Hz seizure: dose-dependent anticonvulsant effects

## O=C1NC(=O)C(c2ccccc2)(c2ccccc2)N1 [PHT, phenytoin]
6 Hz-induced seizures
  doses for antiseizure effect compared with those needed in the MES test: significantly higher doses
  anticonvulsant effects against 6 Hz seizure: dose-dependent anticonvulsant effects

## CC1(C)O[C@@H]2[C@@H](CO[C@@]3(COS(N)(=O)=O)OC(C)(C)O[C@@H]23)O1 [TPM, topiramate]
6 Hz-induced seizures
  doses for antiseizure effect compared with those needed in the MES test: significantly higher doses
  anticonvulsant effects against 6 Hz seizure: dose-dependent anticonvulsant effects
